According to patent US8299252B2, “Pyrazolopyridine and pyrrolopyridine multikinase inhibitors” (Chugai Seiyaku Kabushiki Kaisha, priority 2005, dated 2012):
In brackets after ≈: the same amount, converted by molar mass.

How the values were obtained:
[1] = tested on: human colon cancer cell line HCT116 cells; assay: Cell proliferation inhibitory activity, HCT116; type: cell-based; conditions: Homo sapiens, HCT-116, read-out: 50% proliferation inhibitory concentration (IC50 value) HCT116; HCT116, 72 hours, WST-8
Procedure: (§1) The compounds according to the present invention were measured for cancer cell proliferation inhibitory activity and human umbilical vein endothelial cell (HUVEC) proliferation inhibitory activity.
(§2) Test compounds were serially diluted with dimethyl sulfoxide and then diluted 50 times with Ca^2+- and Mg^2+-free phosphate-buffered saline, and 20 μL of each of the resulting solution was dispensed into a 96-well plate. […] Each cell suspension contains approximately 3000 cells/180 μL. These cell suspensions were dispensed to the plate containing the test compounds at 180 μL/well and incubated in a 5% carbon dioxide gas incubator at 37° C. for 72 hours. 20 μL of WST-8 (HCT116, Dojin) or WST-1 (HUVEC, Roche Diagnostics) was added to each well, and absorbance at 450 nm (reference wavelength: 650 nm) was measured.

[2] = tested on: human umbilical vein endothelial cells (HUVEC), VEGF-dependent proliferation; assay: VEGF-dependent HUVEC proliferation inhibition assay; type: cell-based; conditions: read-out: 50% proliferation inhibitory concentration (IC50 value) HUVEC (VEGF-dependent), 20 ng/mL of VEGF, 72 hours, WST-1
Procedure: as §1, §2

[3] = tested on: human umbilical vein endothelial cells (HUVEC), VEGF-independent proliferation; assay: VEGF-independent HUVEC proliferation inhibition assay; type: cell-based; conditions: read-out: 50% proliferation inhibitory concentration (IC50 value) HUVEC (VEGF-independent), vascular endothelial cell growth-promoting agent and heparin, 72 hours, WST-1
Procedure: as §1, §2

[4] = tested on: tube formation of human-derived vascular endothelial cells (HUVEC); assay: Tube formation inhibition test (angiogenesis assay kit, KURABO); type: cell-based; conditions: 264 h, final concentration 6.4 nM, 11 days, read-out: Tube formation inhibition ratio (%)
Procedure: The formed tubes were stained with a tube staining kit CD31 (KURABO). The stain image of each well was taken under a microscope, stored in an image file, and measured for the tube formation area using angiogenesis quantitative analysis software of KURABO. The inhibition ratio % of each test compound added to the well was calculated, provided that the ratio of the reference was 100%.

[5] = tested on: human colon cancer cell line HCT116 cells; assay: Antitumor test, HCT116 transplanted subcutaneously in nude mice; type: in vivo, female Balb/c nude mouse; conditions: 100 mg/kg oral, once a day for 12 days
Procedure: A cell suspension of human colon cancer cell line HCT116 cells was prepared using Hanks's solution, and 5.0×10^6 cells thereof were transplanted subcutaneously into the flank of each female Balb/c nude mouse. Oral administration of the test compound (once a day for 12 days) was started when the transplanted tumor volume reached 200 to 250 mm^3. The tumor volume was calculated by the expression: 0.5×(minor axis)^2×(major axis). The tumor growth inhibition ratio of tumor growth of the test compound to tumor growth of the reference group was determined.

[6] = Solubility in fasted state simulated intestinal fluid; type: physicochemical; conditions: pH 6.5, fassif, kinetic from dmso stock, fasted state simulated intestinal fluid (pH6.5), 37° C.
Procedure: 2 μL of each dimethyl sulfoxide solutions containing test compounds were dispensed into wells of a 96-well plate, and 200 μL of fasted state simulated intestinal fluid (pH6.5) was added to each well. The plate was shaken at 37° C. for 20 hours. The solution was filtered through a membrane filter, and 101 μL of the filtrate was transferred to a UV plate, followed by addition of 100 μL of a solution mixture of ethanol:water=2:1 thereto. Separately, as a standard, 101 μL of a solution prepared by 2 μL of a dimethyl sulfoxide solution, 4 μL of dimethyl sulfoxide, 400 μL of ethanol, and 200 μL of water was transferred to a UV plate, and 100 μL of fasted state simulated intestinal fluid (pH6.5) was added thereto. The solubility was calculated by the following expression: Solubility=[(absorbance of test solution)−blank]/[(absorbance of standard solution)−blank]×165 μM (165 μM is the concentration of the standard solution) Composition of the fasted state simulated intestinal fluid (pH6.5)
The composition was prepared in compliance with the description in E. Galia, et al., Pharm. Res. 1998, 698.
Taurocholic acid (161 mg), L-α-phosphatidylcholine (59 mg), potassium dihydrogen phosphate (0.39 g), and potassium chloride (0.77 g) were added to about 90 mL of water. The resulting solution was adjusted to a pH of 6.5 with a sodium hydroxide aqueous solution and then diluted to a volume of 100 mL with water. The solution was filtered through a membrane filter.

[7] = Pharmacokinetics test, oral administration; type: in vivo; conditions: female, Balb/c nude, mouse, 100 mg/kg, plasma
Procedure: The compound according to the present invention and known Compound A were measured for pharmacokinetics. Each of the test compounds was orally administered to each female Balb/c nude mouse at a dose of 100 mg/kg, and concentrations of the compound in plasma 0.5, 2, 7, and 24 hours after the administration were quantitatively measured by LC-MS-MS.

[8] = tested on: choroidal neovascularization; assay: Laser coagulation-induced murine choroidal neovascularization model; type: in vivo, C57BL6J mice; conditions: for Average FA score: once a day for three days
Procedure: Laser coagulation was performed on two- to three-month-old C57BL6J mice (ten mice per group) by using a 408 nm semiconductor laser (DC-3000, Nidek). Both eyes were each irradiated at three positions with a spot size of 170 μm, an exposure time of 0.02 sec, and an output of 200 mW. The drug was orally administered once a day for three days beginning on the day of the laser coagulation. On the next day of the last administration, the mice were intravenously injected with 7 mg/kg of fluorescein. Five minutes after the injection, three fluorescent fundus images of each eye were taken (TRC-501X, Topcon) and stored in a CCD camera having 640×480 pixels as an image file. The total pixel brightness (0 to 1) in regions where fluorescein leakage was detected was used as an index (FA score) of choroidal neovascularization activity. The FA score was calculated by defining reference values such that the pixel brightness in a capillary region of a non-coagulated site is 0 and the pixel brightness on a main branch of the retinal blood vessel is 1.

`O=C(Nc1ccc(Oc2ccnc3[nH]ccc23)cc1)Nc1ccc(CCC(F)F)c(C(F)(F)F)c1` [Compound 12, 1-[4-(3,3-Difluoropropyl)-3-(trifluoromethyl)phenyl]-3-[4-(1H-pyrrolo[2,3-b]pyridin-4-yloxy)phenyl]urea] gave an IC50 [1] of 2600 nM, an IC50 [2] of 5.1 nM and an IC50 [3] of 270 nM. The inhibition at 0.0064 µM [4] was 81%, the “Tumor growth inhibition ratio (%)” value ([5]; last administration day) was 100% and the “Decrease ratio in body weight (%)” value ([5]; maximum decrease) was 6.5%. It also gave a solubility at 20 h [6] of 15 µg/mL (≈ 30.6 µM), an AUC [7] of 247 µg·h/mL and a Cmax [7] of 22700 ng/mL. The “inhibition of the angiogenesis (in words)” value ([8]; 50 mg/kg) was “significantly inhibited”, the “Average FA score” value ([8]; 50 mg/kg oral) was 6.910 and the “inhibition of the angiogenesis (in words)” value ([8]; 100 mg/kg) was “significantly inhibited”. The “Average FA score” value ([8]; 100 mg/kg oral) was 6.833.
